In PMC6644994, “Chemical Ligand Space of Cereblon” (ACS Omega, 2018):
Entries after “also recorded” stand apart in the source; their conditions may differ. Read-outs that look alike come from different tables or passages of the source.

Experiments:
MsCI4 [1] = molecular target: MsCI4 (Magnetospirillum gryphiswaldense, UniProt A4TVL0, W36F/W59F); assay: biochemical; assay type: binding
[2] = test system: zebrafish embryos (cereblon-mediated pectoral fin malformation); assay: Zebrafish pectoral fin deformity assay
[3] = test system: zebrafish embryos (cereblon-mediated pectoral fin malformation); settings: cited from earlier work
MsCI4 [4] = molecular target: T1, MsCI4 (Magnetospirillum gryphiswaldense, UniProt A4TVL0); assay: X-ray crystallography of MsCI4·ligand crystals obtained by soaking; assay type: binding; parameters: key to binding verified via crystallography (symbol in Table S1): X-tal: binding verified via crystallography; settings: for binding verified via crystallography (in words): MsCI4·thalidomide crystals soaked with solid rolipram
T1 sequence (A4TVL0 1-124): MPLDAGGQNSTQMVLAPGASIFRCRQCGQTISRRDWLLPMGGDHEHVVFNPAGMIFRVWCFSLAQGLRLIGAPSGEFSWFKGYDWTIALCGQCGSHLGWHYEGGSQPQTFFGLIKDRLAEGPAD
Description: In a next step, we characterized the binding of representative compounds via X-ray crystallography. […] (II) The structures with ethosuximide, hydantoin, 2-thiohydantoin, and thiazolidine-2,4-dione verify that imides with 5-membered rings have the same basic binding mode as 6-membered rings. (III) The binding mode of γ-butyrolactam, δ-valerolactam and rolipram verifies that lactams have a binding mode analogous to imides, with their carbonyl group occupying position d. […] Importantly, in a direct comparison with the crystal structure of the human thalidomide-binding domain, none of the protruding moieties of the effectors is interacting or in contact with any nonconserved amino acid side chain, such that their binding modes are not influenced by species-specific differences (Figure S2).
After 40 h of soaking, these crystals were loop-mounted and flash-cooled in liquid nitrogen. Data were collected at 100 K and a wavelength of 1 Å on a PILATUS 6M-F detector at beamline X10SA of the Swiss Light Source (PSI, Villigen, Switzerland). Diffraction images were indexed, integrated, and scaled using XDS.[34] […] Data collection and refinement statistics are summarized together with PDB accession codes in Table S2. All molecular depictions were prepared using MolScript,[37] BobScript,[38] and Raster3D.[39]

[5] = Table S1, affinity for MsCI4, FRET assay, read-out: Ki
[6] = zebrafish embryos, 400 μM, 75 h post fertilization

MsCI4 (Magnetospirillum gryphiswaldense, UniProt A4TVL0, W36F/W59F), sequence (A4TVL0 entry or part of it W36F/W59F): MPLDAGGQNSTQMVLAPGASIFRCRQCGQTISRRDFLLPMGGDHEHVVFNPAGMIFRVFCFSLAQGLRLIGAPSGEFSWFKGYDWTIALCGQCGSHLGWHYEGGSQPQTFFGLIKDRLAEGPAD

Compound | binding to MsCI4 in the FRET assay (in words) (MsCI4 [1]; FRET assay) | Ki (MsCI4 [1]) [µM] | also measured
NC(=O)NC(=O)Cc1ccccc1 [Phenylacetylurea] | did not bind |  | Ki (MsCI4 [1]; [5]): > 1000 µM
COc1ccc(C2CNC(=O)C2)cc1OCCCN1CCC(C(=O)c2ccc(F)cc2)CC1 (stereo not drawn) [Lidanserin] |  | 25 ± 8.5 | 
CCC1(C)NC(=O)NC1=O (stereo not drawn) [5-Ethyl-5-methyl-hydantoin] | no binding was detectable | > 1000 | 
CC1CCC(=O)N1 (stereo not drawn) [5-Methylpyrrolidin-2-one] |  | 19 ± 6 | 
O=C1CCCN1 [γ-Butyrolactam, Pyrrolidin-2-one] |  | 57 ± 11.6 | 
O=C1CC(=O)NC(=O)N1 [Barbiturate] | abolished binding | > 1000 | pectoral fin deformity / teratogenic effect [2, 6]: no effect; also recorded: does not cause any effects
O=c1ccn([C@H]2C[C@H](O)[C@@H](CO)O2)c(=O)[nH]1 [Deoxyuridine] |  | 15 ± 1.6 | 
O=C1CCC(N2C(=O)c3ccccc3C2=O)C(=O)N1 (stereo not drawn) [Thalidomide] |  |  | pectoral fin development in zebrafish embryos ([3]; zebrafish embryos): stunted pectoral fins; pectoral fin phenotype ([2]; zebrafish, 200 μM): not clearly identifiable
O=c1[nH]cc([C@@H]2O[C@H](CO)[C@@H](O)[C@H]2O)c(=O)[nH]1 [Pseudouridine] | not detectable; also recorded: no detectable binding | > 1000 | 
O=C1CCNC(=O)N1 [Dihydrouracil, Hexahydropyrimidine-2,4-dione] |  | 88 ± 6.8 | 
O=C1CCCCCCN1 [1-Azo-2-Cyclooctanone] |  |  | Ki (MsCI4 [1]; [5]): > 1000 µM
CC1(C)OC(=O)NC1=O [5,5-Dimethyl-oxazolidine-2,4-dione] | no detectable binding | > 1000 | 
O=C1CCCC(=O)N1 [Glutarimide, Piperidine-2,6-dione] |  |  | effect on pectoral fin deformity of injecting zcrbnYW/AA mRNA (thalidomide-insensitive cereblon mutant) [2, 6]: alleviated; pectoral fin deformity / teratogenic effect [2, 6]: strongest effect; also recorded: cause developmental defects
O=C1CCCO1 [γ-Butyrolactone] |  | > 1000 | 
CN1CC(=O)NC1=N [Creatinine, 2-Imino-N-methylhydantoin] |  | > 1000 | 
O=C1CNC(=S)N1 [2-Thiohydantoin] |  | 13 ± 1.3 | 
CCC1(c2ccc(N)cc2)CCC(=O)NC1=O (stereo not drawn) [Aminoglutethimide] |  | 39 ± 3.8 | 
C1CCNCC1 [Piperidine] |  | > 1000 | 
O=C1CNC(=O)N1 [Hydantoin, Imidazolidine-2,4-dione] |  | 43 ± 10.7 | 
CC(N)=O [Acetamide] | could not detect any binding |  | Ki (MsCI4 [1]; [5]): > 1000 µM
O=C1CCN1 [Azetidin-2-one] |  |  | Ki (MsCI4 [1]; [5]): 77 ± 11 µM
CC(=O)NC(N)=O [N-Acetylurea] | detectable |  | Ki (MsCI4 [1]; printed in figures and text, FRET assay, read-out: Experimental Ki values for MsCI4): 522 µM

Compound | binding to MsCI4 in the FRET assay (in words) (MsCI4 [1]; FRET assay) | Ki (MsCI4 [1]) [µM] | also measured
COc1ccc(C2CNC(=O)C2)cc1OC1CCCC1 (stereo not drawn) [Rolipram] |  |  | binding verified via crystallography (in words) (MsCI4 [4]): binding was confirmed via crystallography; binding verified via crystallography (in words) (MsCI4 [4]; listed as rolipram): could verify its binding via crystallography; also recorded: verified by crystallography; binding verified via crystallography (symbol in Table S1) (MsCI4 [4]; Table S1): X-tal
Nc1cc[nH]c(=O)n1 [Cytosine] |  | > 1000 | 
S=C1CCCN1 [Pyrrolidine-2-thione] |  | > 1000 | 
N-(2-Hydroxypropyl)acetamide | could not detect any binding |  | Ki (MsCI4 [1]; [5]): > 1000 µM
CCC1(C)CC(=O)NC1=O (stereo not drawn) [Ethosuximide, 3-Ethyl-3-methylsuccinimide] |  | 136 ± 11.6 | 
Cc1c[nH]c(=O)[nH]c1=O [Thymine, 5-Methylpyrimidine-2,4-dione] | very low but measurable affinities | 478 ± 41.6 | 
O=C1CCC(=O)O1 [Succinic Anhydride] |  | > 1000 | 
CC(=O)NCCCCC(N)C(=O)O (stereo not drawn) [N-ε-Acetyllysine, 2-azaniumyl-6-acetamidohexanoate] | could not detect any binding | > 1000 | 
Cc1cn([C@H]2C[C@H](O)[C@@H](CO)O2)c(=O)[nH]c1=O [Thymidine] | very low but measurable affinities | 204 ± 34.5 | 
C[C@@H]1C[C@@H]([C@H](O)CC2CC(=O)NC(=O)C2)C(=O)[C@@H](C)C1 [Cycloheximide] | abolished binding | > 1000 | 
Pyrrol-2,5-dione [Maleimide] |  |  | Ki (MsCI4 [1]; [5]): 35 ± 3.1 µM
O=C1CCC(=O)N1 [Succinimide, Pyrrolidine-2,5-dione] |  | 4.3 ± 0.5 | 
O=C1CCCCN1 [δ-Valerolactam, Piperidin-2-one] |  | 146 ± 20.3 | 
CN1CC(=O)NC1=O [N-Methylhydantoin] |  | 16 ± 1.3 | 
O=C1CCCCCN1 [ε-Caprolactam] | no detectable binding | > 1000 | 
O=c1ccn([C@@H]2O[C@H](CO)[C@@H](O)[C@H]2O)c(=O)[nH]1 [Uridine] |  | 13 ± 1.9 | teratogenic effect on fin formation in zebrafish ([3]; zebrafish): same effect on fin formation
O=C1CCCC(=O)O1 [Glutaric Anhydride] |  | > 1000 | 
O=C1CSC(=O)N1 [Thiazolidine-2,4-dione] |  | 137 ± 15.9 | 
C1CCNC1 [Pyrrolidine] |  |  | Ki (MsCI4 [1]; [5]): > 1000 µM
O=c1cc[nH]c(=O)[nH]1 [Uracil, Pyrimidine-2,4-dione] |  | 35 ± 5.1 | 
CC(=O)NCCN [N-(2-Aminoethyl)acetamide] | could not detect any binding | > 1000 | 
